From patent publication US12686673B2 (Blueprint Medicines Corporation, priority 2020, dated 2026) come the findings set out here.

Molecules are shown by their SMILES. Where a name gives a salt, the structure may show the parent alone. Read-outs that look alike come from different tables or passages of the source.

In general, IC50 refers to the concentration that inhibits the measured activity by half.

Common to all, as to format: cell-based
Experiment [1] deals with EGFR (A767_dupASV) expressing Ba/F3 stable cell line (Homo sapiens, UniProt P00533, DUP767-769, cells depend on it). Briefly: Cellular proliferation (Alamar Blue) assay, EGFR A767_dupASV Ba/F3. Particulars: 72 hr, read-out: A767 IC50. The essentials:
(§1)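 Each stable Ba/F3 line, cultured in RPMI with 10% FBS at 15,000 cells per well, received a threefold compound series (final top 10 μM, bottom 0.0005 μM) for 72 hr at 37 degree Celsius, then Alamar Blue for 3 h.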
Background: The colour change of resazurin is a common sign of viable cells or microbes.

Experiment [2] addresses EGFR (H773insNPH) expressing Ba/F3 stable cell line (Homo sapiens, UniProt P00533, DUP771-773, cells depend on it). Description: Cellular proliferation (Alamar Blue) assay, EGFR H773insNPH Ba/F3. Particulars: 72 hr, read-out: NPH IC50. The essentials:
as §1

For another experiment, the system named is A431 cells. Description: Cellular proliferation (Alamar Blue) assay, A431.
The target in experiment [3] is EGFR(D770_N771insSVD) expressing Ba/F3 stable cell line (Homo sapiens, UniProt P00533, DUP768-770, cells depend on it). Description: Cellular proliferation (Alamar Blue) assay, EGFR D770_N771insSVD Ba/F3. The conditions noted are these: 72 hr, read-out: D770 IC50. The essentials:
as §1

The target in experiment [4] is HER2 (A775_G776insYVMA) expressing Ba/F3 stable cell line (Homo sapiens, UniProt P04626, DUP772-775, cells depend on it). Description: Cellular proliferation (Alamar Blue) assay, HER2 A775_G776insYVMA Ba/F3. The conditions noted are these: 72 hr, read-out: YVMA IC50. The essentials: as §1
Chain of HER2 (A775_G776insYVMA) expressing Ba/F3 stable cell line (P04626 with tags, fused parts or gaps DUP772-775): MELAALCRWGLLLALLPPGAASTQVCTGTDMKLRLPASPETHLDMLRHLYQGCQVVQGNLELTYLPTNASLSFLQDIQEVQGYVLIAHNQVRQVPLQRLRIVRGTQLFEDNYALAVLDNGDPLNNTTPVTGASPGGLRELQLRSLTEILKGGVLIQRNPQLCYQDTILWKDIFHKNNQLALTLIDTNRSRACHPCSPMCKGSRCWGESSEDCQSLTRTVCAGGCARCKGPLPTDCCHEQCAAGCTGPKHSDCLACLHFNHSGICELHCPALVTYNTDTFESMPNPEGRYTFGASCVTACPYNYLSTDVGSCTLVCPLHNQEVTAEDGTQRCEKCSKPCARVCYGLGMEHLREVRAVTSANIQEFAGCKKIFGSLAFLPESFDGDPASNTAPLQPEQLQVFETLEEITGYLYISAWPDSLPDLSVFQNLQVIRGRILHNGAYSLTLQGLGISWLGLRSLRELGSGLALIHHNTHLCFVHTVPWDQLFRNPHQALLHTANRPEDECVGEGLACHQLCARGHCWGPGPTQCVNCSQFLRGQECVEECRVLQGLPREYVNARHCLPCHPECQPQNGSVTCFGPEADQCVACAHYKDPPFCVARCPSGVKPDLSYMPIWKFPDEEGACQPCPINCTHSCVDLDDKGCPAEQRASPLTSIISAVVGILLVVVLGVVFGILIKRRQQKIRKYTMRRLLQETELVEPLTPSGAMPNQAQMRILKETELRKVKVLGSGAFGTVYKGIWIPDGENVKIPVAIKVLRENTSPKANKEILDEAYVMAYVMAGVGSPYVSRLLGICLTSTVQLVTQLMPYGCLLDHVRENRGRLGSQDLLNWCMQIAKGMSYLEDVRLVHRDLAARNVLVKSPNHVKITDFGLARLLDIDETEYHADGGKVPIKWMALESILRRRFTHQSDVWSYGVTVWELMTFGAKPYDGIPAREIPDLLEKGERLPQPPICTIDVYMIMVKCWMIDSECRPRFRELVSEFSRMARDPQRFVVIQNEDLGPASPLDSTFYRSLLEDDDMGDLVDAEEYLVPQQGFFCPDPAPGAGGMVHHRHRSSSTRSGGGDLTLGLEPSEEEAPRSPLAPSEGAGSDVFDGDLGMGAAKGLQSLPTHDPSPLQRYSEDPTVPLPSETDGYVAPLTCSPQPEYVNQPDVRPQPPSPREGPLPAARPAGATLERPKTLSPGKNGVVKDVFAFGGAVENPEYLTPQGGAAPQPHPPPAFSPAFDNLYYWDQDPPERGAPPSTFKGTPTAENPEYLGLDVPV
The mark [5] stands for this setting: Homo sapiens, A-431, A431 cells, Alamar Blue, 72 hr, read-out: A431 IC50.

Chain of EGFR(D770_N771insSVD) expressing Ba/F3 stable cell line (P00533 with tags, fused parts or gaps DUP768-770): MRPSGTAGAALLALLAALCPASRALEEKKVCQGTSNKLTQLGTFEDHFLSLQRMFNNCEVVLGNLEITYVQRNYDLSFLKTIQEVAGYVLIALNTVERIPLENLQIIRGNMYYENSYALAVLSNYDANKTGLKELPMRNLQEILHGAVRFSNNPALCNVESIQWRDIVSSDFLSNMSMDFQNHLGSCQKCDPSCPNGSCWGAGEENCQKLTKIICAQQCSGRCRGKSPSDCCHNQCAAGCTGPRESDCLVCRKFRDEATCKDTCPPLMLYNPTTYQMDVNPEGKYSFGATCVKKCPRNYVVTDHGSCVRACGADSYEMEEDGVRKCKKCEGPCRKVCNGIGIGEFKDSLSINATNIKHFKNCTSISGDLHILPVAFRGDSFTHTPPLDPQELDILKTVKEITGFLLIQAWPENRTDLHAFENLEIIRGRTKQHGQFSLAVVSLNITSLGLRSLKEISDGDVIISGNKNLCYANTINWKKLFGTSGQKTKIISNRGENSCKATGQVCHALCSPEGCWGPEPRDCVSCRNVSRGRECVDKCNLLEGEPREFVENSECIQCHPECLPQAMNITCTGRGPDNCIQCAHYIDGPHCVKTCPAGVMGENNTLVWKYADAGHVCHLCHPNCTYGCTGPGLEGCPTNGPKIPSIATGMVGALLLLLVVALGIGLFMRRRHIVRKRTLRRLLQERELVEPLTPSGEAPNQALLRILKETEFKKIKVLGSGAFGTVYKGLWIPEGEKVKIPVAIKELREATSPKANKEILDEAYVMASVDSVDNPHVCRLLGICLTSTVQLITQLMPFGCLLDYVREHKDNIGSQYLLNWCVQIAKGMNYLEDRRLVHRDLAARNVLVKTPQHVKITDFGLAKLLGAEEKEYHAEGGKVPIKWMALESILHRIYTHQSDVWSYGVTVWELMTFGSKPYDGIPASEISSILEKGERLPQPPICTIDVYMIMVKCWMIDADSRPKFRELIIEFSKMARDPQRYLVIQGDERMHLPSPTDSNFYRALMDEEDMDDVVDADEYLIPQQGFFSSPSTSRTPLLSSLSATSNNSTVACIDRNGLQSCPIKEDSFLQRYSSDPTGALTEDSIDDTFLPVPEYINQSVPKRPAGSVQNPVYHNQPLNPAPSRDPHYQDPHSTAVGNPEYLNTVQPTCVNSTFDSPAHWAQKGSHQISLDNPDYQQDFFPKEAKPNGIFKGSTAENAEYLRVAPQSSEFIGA
Chain of EGFR (H773insNPH) expressing Ba/F3 stable cell line (P00533 with tags, fused parts or gaps DUP771-773): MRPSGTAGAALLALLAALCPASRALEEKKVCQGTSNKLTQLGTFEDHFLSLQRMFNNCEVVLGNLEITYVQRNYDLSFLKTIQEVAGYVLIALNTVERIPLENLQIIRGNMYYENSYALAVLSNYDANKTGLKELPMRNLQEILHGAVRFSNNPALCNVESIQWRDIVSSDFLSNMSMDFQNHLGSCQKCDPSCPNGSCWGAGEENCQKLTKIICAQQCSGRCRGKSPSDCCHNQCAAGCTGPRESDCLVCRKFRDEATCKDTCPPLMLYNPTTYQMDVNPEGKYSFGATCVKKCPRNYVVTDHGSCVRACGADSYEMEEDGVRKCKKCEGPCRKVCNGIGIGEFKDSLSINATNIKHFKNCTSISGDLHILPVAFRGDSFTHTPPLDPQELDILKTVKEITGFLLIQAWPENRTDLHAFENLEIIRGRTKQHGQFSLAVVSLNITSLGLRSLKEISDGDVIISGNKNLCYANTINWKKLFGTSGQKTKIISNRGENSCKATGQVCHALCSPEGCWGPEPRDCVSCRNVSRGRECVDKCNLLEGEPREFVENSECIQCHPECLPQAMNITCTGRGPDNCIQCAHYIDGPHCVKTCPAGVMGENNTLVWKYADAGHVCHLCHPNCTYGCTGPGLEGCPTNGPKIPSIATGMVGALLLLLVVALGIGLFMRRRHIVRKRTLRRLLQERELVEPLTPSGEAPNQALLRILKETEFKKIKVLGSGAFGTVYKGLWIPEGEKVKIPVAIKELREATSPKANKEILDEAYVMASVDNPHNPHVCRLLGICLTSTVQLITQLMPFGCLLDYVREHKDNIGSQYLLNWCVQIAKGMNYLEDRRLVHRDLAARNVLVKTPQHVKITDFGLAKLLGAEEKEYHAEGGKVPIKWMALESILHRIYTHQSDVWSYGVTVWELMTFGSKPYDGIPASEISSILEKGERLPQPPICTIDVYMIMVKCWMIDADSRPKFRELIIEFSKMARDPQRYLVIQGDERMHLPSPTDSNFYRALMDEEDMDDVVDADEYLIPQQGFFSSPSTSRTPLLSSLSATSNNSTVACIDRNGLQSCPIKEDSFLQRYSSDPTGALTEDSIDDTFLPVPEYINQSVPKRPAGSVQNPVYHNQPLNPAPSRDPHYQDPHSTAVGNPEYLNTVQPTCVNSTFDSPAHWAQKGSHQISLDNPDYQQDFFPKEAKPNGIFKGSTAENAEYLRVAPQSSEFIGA
Chain of EGFR (A767_dupASV) expressing Ba/F3 stable cell line (P00533 with tags, fused parts or gaps DUP767-769): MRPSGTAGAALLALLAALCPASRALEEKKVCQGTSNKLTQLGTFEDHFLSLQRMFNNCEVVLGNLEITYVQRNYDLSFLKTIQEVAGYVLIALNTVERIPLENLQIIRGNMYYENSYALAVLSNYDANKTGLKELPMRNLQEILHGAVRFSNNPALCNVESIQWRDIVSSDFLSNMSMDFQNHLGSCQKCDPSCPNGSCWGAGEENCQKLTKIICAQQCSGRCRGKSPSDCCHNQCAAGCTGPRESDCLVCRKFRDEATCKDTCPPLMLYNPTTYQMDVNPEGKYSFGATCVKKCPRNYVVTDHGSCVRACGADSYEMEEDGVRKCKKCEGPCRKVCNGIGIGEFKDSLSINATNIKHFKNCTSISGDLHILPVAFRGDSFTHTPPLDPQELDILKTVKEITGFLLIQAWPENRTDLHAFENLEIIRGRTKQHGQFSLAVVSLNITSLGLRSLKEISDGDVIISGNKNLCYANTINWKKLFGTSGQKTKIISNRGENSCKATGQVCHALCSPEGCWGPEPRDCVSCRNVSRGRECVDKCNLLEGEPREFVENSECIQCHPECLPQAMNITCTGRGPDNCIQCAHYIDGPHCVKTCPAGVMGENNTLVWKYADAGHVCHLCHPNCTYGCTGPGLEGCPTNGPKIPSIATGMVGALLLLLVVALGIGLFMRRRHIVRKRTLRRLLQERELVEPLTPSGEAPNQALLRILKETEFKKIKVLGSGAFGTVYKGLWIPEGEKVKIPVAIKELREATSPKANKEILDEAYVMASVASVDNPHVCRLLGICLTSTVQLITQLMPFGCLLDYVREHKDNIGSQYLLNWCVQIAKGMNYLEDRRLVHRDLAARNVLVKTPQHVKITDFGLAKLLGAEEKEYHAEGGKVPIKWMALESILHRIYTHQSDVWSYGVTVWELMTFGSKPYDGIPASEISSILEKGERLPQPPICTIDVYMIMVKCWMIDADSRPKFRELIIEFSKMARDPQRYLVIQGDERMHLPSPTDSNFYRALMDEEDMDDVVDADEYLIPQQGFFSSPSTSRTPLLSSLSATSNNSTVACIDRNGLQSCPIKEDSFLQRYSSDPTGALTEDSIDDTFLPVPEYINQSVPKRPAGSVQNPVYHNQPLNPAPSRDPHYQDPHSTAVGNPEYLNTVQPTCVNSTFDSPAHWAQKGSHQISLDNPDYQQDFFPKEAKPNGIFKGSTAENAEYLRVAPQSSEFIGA

With `C=CC(=O)Nc1ccc(F)c(Nc2nc(Nc3cnn(C)c3)ncc2-c2ccc(C(F)(F)F)cc2)c1` [Compound 243, N-(4-fluoro-3-((2-((1-(methyl-^13C-d3)-1H-pyrazol-4-yl)amino)-5-(4-(trifluoromethyl)phenyl)pyrimidin-4-yl)amino)phenyl)acrylamide], the GI50 in experiment [1] turned out to be 135 nM; in experiment [2], 121 nM; in experiment [3], 88 nM; in experiment [4], 237 nM. The half-maximal inhibitory concentration (IC50) with A431 cells (A431 cells, 72 hr, Alamar Blue, read-out: A431 IC50) worked out at 2600 nM.

In the case of `C=CC(=O)Nc1ccc(F)c(Nc2nc(Nc3cnn(C)c3)ncc2-c2ccc(C(F)(F)F)cc2)c1` [Compound 37, N-(4-fluoro-3-((2-((1-methyl-1H-pyrazol-4-yl)amino)-5-(4-(trifluoromethyl)phenyl)pyrimidin-4-yl)amino)phenyl)acrylamide], the GI50 was found to be 73 nM in experiment [1], 85 nM in experiment [2], 34 nM in experiment [3] and 974 nM in experiment [4]. In the experiment with A431 cells (setting [5]), the IC50 worked out at 185 nM.

Consider `C=CC(=O)Nc1ccc(F)c(Nc2nc(Nc3cnn(C)c3)ncc2-c2ccc(F)cc2)c1` [Compound 63, N-(4-fluoro-3-((5-(4-fluorophenyl)-2-((1-methyl-1H-pyrazol-4-yl)amino)pyrimidin-4-yl)amino)phenyl)acrylamide], for which the GI50 in experiment [1] was found to be 102 nM; in experiment [2], 116 nM; in experiment [3], 60 nM; in experiment [4], 344 nM. Moreover, the concentration for half-maximal inhibition (IC50) in the experiment with A431 cells (setting [5]) was found to be 1280 nM.

Consider `C=CC(=O)Nc1cccc(Oc2nc(Nc3cnn(C)c3)ncc2-c2cncc(C(F)(F)F)c2)c1` [Compound 104, N-(3-((2-((1-methyl-1H-pyrazol-4-yl)amino)-5-(5-(trifluoromethyl)pyridin-3-yl)pyrimidin-4-yl)oxy)phenyl)acrylamide], for which the GI50 in experiment [1] turned out to be 104 nM; in experiment [2], 101 nM; in experiment [3], 107 nM; in experiment [4] it was 115 nM. Also, the IC50 in the experiment with A431 cells (setting [5]) was 1120 nM.

For `C=CC(=O)Nc1ccc(F)c(Nc2nc(Nc3cnn(C)c3)ncc2-c2ccc(OC(F)F)cc2)c1` [Compound 140, N-(3-((5-(4-(difluoromethoxy)phenyl)-2-((1-methyl-1H-pyrazol-4-yl)amino)pyrimidin-4-yl)amino)-4-fluorophenyl)acrylamide], the GI50 was 34 nM in experiment [1], 58 nM in experiment [2], 32 nM in experiment [3] and 269 nM in experiment [4]. For the same compound, in the experiment with A431 cells (setting [5]), the half-maximal inhibitory concentration (IC50) turned out to be 22 nM.

Consider `C=CC(=O)Nc1ccc(F)c(Nc2nc(Nc3cnn(C)c3)ncc2-c2cncnc2)c1` [Compound 147, N-(4-fluoro-3-((2-((1-methyl-1H-pyrazol-4-yl)amino)-[5,5′-bipyrimidin]-4-yl)amino)phenyl)acrylamide trifluoroacetate], for which the GI50 in experiment [1] was determined as 101 nM; in experiment [2] it was 68 nM; in experiment [3], 105 nM; in experiment [4], 100 nM. Further, in the experiment on A431 cells (setting [5]), the concentration for half-maximal inhibition (IC50) came out at 466 nM.

On to `C=CC(=O)Nc1ccc(F)c(Nc2nc(Nc3cnn(C)c3)ncc2-c2cccnc2)c1` [Compound 84, N-(4-fluoro-3-((2-((1-methyl-1H-pyrazol-4-yl)amino)-5-(pyridin-3-yl)pyrimidin-4-yl)amino)phenyl)acrylamide], for which the GI50 in experiment [1] is 83 nM; in experiment [2], 50 nM; in experiment [3], 64 nM; in experiment [4] it was 119 nM. Besides, the concentration for half-maximal inhibition (IC50) in the experiment on A431 cells (Homo sapiens, A-431, 72 h, read-out: A431 IC50 (nM)) amounted to 191 nM.

With `C=CC(=O)Nc1ccc(F)c(Nc2nc(Nc3cnn(CCO)c3)ncc2-c2ccc(C(F)(F)F)cc2)c1` [Compound 78, N-(4-fluoro-3-((2-((1-(2-hydroxyethyl)-1H-pyrazol-4-yl)amino)-5-(4-(trifluoromethyl)phenyl)pyrimidin-4-yl)amino)phenyl)acrylamide], the GI50 in experiment [1] was found to be 93 nM; in experiment [2], 53 nM; in experiment [3], 84 nM; in experiment [4], 266 nM. Moreover, in the experiment on A431 cells (setting [5]), the half-inhibitory concentration (IC50) is over 10000 nM.

As for `C=CC(=O)Nc1cccc(Nc2nc(Nc3cnn(C)c3)ncc2-c2ccc(C(F)(F)F)nc2)c1` [Compound 73, N-(3-((2-((1-methyl-1H-pyrazol-4-yl)amino)-5-(6-(trifluoromethyl)pyridin-3-yl)pyrimidin-4-yl)amino)phenyl)acrylamide], the GI50 in experiment [1] is 45 nM; in experiment [2] it was 100 nM; in experiment [3], 39 nM; in experiment [4], 113 nM. Further, the IC50 with A431 cells (setting [5]) stood at 252 nM.

Consider `C=CC(=O)Nc1ccc(F)c(Nc2nc(Nc3cnn(C)c3)ncc2-c2cncs2)c1` [Compound 230, N-(4-fluoro-3-((2-((1-methyl-1H-pyrazol-4-yl)amino)-5-(thiazol-5-yl)pyrimidin-4-yl)amino)phenyl)acrylamide], for which the GI50 is 63 nM in experiment [1], 41 nM in experiment [2], 63 nM in experiment [3] and 54 nM in experiment [4]. Further, in the experiment with A431 cells (Homo sapiens, A-431, A431 cells, 72 hr, Alamar Blue, read-out: A431 IC50), the IC50 was 109 nM.

Take `C=CC(=O)Nc1ccc(F)c(Nc2nc(Nc3cnn(C)c3)ncc2-c2ccc(OC(F)F)nc2)c1` [Compound 70, N-(3-((5-(6-(difluoromethoxy)pyridin-3-yl)-2-((1-methyl-1H-pyrazol-4-yl)amino)pyrimidin-4-yl)amino)-4-fluorophenyl)acrylamide]: the GI50 in experiment [1] is 36 nM; in experiment [2] it was 88 nM; in experiment [3], 35 nM; in experiment [4], 123 nM. Besides, the concentration for half-maximal inhibition (IC50) with A431 cells (setting [5]) was found to be 77 nM.

Regarding `C=CC(=O)Nc1cccc(Nc2nc(Nc3cnn(C)c3)ncc2-c2ccc(F)nc2)c1` [Compound 74, N-(3-((5-(6-fluoropyridin-3-yl)-2-((1-methyl-1H-pyrazol-4-yl)amino)pyrimidin-4-yl)amino)phenyl)acrylamide], the GI50 was 38 nM in experiment [1], 43 nM in experiment [2], 36 nM in experiment [3] and 70 nM in experiment [4]. Also, the half-inhibitory concentration (IC50) in the experiment on A431 cells (setting [5]) was 236 nM.

For the compound `C=CC(=O)Nc1ccc(F)c(Nc2nc(Nc3cnn(C)c3)ncc2-c2ccc(OC(F)(F)F)cc2)c1` [Compound 92, N-(4-fluoro-3-((2-((1-methyl-1H-pyrazol-4-yl)amino)-5-(4-(trifluoromethoxy)phenyl)pyrimidin-4-yl)amino)phenyl)acrylamide], the GI50 in experiment [1] worked out at 75 nM; in experiment [2], 89 nM; in experiment [3], 102 nM; in experiment [4] it was 612 nM. Further, the IC50 with A431 cells (setting [5]) was determined as 133 nM.

As to `C=CC(=O)Nc1ccc(F)c(Nc2nc(Nc3cnn(C)c3)ncc2-c2cncc(N(C)C)c2)c1` [Compound 116, N-(3-((5-(5-(dimethylamino)pyridin-3-yl)-2-((1-methyl-1H-pyrazol-4-yl)amino)pyrimidin-4-yl)amino)-4-fluorophenyl)acrylamide trifluoroacetate], the GI50 in experiment [1] amounted to 94 nM; in experiment [2], 136 nM; in experiment [3], 108 nM; in experiment [4] it was 251 nM. In the experiment with A431 cells (setting [5]), the half-inhibitory concentration (IC50) stood at 108 nM.

Turning to `C=CC(=O)Nc1ccc(F)c(Nc2nc(Nc3cnn(C)c3)ncc2-c2cccc(F)c2)c1` [Compound 88, N-(4-fluoro-3-((5-(3-fluorophenyl)-2-((1-methyl-1H-pyrazol-4-yl)amino)pyrimidin-4-yl)amino)phenyl)acrylamide], the GI50 in experiment [1] is 48 nM; in experiment [2], 49 nM; in experiment [3] it was 35 nM; in experiment [4] it was 198 nM. The IC50 with A431 cells (setting [5]) worked out at 929 nM.

For the compound `C=CC(=O)Nc1ccc(F)c(Nc2nc(Nc3cnn(C4CCN(C)CC4)c3)ncc2-c2ccc(C(F)(F)F)cc2)c1` [Compound 85, N-(4-fluoro-3-((2-((1-(1-methylpiperidin-4-yl)-1H-pyrazol-4-yl)amino)-5-(4-(trifluoromethyl)phenyl)pyrimidin-4-yl)amino)phenyl)acrylamide], the GI50 in experiment [1] is 249 nM; in experiment [2] it was 119 nM; in experiment [3], 109 nM; in experiment [4], 378 nM. In addition, in the experiment on A431 cells (setting [5]), the IC50 stood at 5440 nM.

Turning to `C=CC(=O)Nc1ccc(F)c(Nc2nc(Nc3cn(C)nc3F)ncc2-c2ccc(C(F)(F)F)cc2)c1` [Compound 87, N-(4-fluoro-3-((2-((3-fluoro-1-methyl-1H-pyrazol-4-yl)amino)-5-(4-(trifluoromethyl)phenyl)pyrimidin-4-yl)amino)phenyl)acrylamide], the GI50 in experiment [1] amounted to 239 nM; in experiment [2], 234 nM; in experiment [3] it was 171 nM; in experiment [4] it was 413 nM. Further, in the experiment on A431 cells (setting [5]), the IC50 worked out at 97 nM.

Consider `C=CC(=O)Nc1ccc(F)c(Nc2nc(Nc3cn(C)nc3Cl)ncc2-c2ccc(C(F)(F)F)cc2)c1` [Compound 112, N-(3-((2-((3-chloro-1-methyl-1H-pyrazol-4-yl)amino)-5-(4-(trifluoromethyl)phenyl)pyrimidin-4-yl)amino)-4-fluorophenyl)acrylamide trifluoroacetate], for which the GI50 in experiment [1] is 80 nM; in experiment [2], 138 nM; in experiment [3], 93 nM; in experiment [4], 288 nM. The IC50 in the experiment with A431 cells (setting [5]) is 88 nM.
